21 molecules from ChEMBL document CHEMBL1136615, “Carbonic anhydrase inhibitors: inhibition of cytosolic isozymes I and II with sulfamide derivatives” (Bioorg Med Chem Lett, 2003) can be followed below.

Some results are limits rather than exact numbers.

In general, Ki refers to a dissociation constant, usually derived from enzyme kinetics or from competition with a known ligand.

One test concerns the target Carbonic anhydrase 2 (Homo sapiens, UniProt P00918).
In a further test the target is Carbonic anhydrase 1 (Homo sapiens, UniProt P00915).
Sequence of Carbonic anhydrase 1 (P00915 whole entry): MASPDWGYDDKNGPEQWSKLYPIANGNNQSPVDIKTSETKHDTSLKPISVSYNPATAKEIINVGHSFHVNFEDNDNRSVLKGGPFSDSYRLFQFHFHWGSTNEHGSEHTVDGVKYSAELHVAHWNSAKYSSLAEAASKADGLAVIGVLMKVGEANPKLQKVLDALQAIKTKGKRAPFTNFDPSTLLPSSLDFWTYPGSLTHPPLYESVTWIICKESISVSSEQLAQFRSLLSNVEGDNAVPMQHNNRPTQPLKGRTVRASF

Description for Carbonic anhydrase 1: Inhibitory activity against human cloned isoenzyme carbonic anhydrase I (hCA I), by esterase method.
Description for Carbonic anhydrase 2: Inhibitory activity against human cloned isoenzyme carbonic anhydrase II (hCA II), by esterase method.

In the case of `COc1ccc(NS(N)(=O)=O)cc1`, the Ki at Carbonic anhydrase 2 stood at 11 nM; at Carbonic anhydrase 1 it was 14 nM.
For the molecule `NS(=O)(=O)N1CCCCCC1`, the inhibition constant (Ki) on Carbonic anhydrase 2 stood at 131 nM; at Carbonic anhydrase 1, 163 nM.
Turning to `NS(=O)(=O)Nc1ccc(I)cc1`, the Ki on Carbonic anhydrase 2 was 17 nM; at Carbonic anhydrase 1 it was 18 nM.
Regarding `NS(=O)(=O)Nc1ccc(Br)cc1`, the Ki on Carbonic anhydrase 1 was 23 nM.
For `CCOC(=O)c1ccc(NS(N)(=O)=O)cc1`, the Ki at Carbonic anhydrase 2 turned out to be 19 nM; at Carbonic anhydrase 1 it was 26 nM.
`NS(=O)(=O)N(C1CCCCC1)C1CCCCC1`: the inhibition constant (Ki) on Carbonic anhydrase 2 and on Carbonic anhydrase 1 was more than 100000 nM throughout.
Take `NS(=O)(=O)Nc1ccc(Cl)cc1`: the Ki on Carbonic anhydrase 2 stood at 15 nM; on Carbonic anhydrase 1, 19 nM.
Consider `CC(C)N(C(C)C)S(N)(=O)=O`, for which the Ki on Carbonic anhydrase 2 and on Carbonic anhydrase 1 was more than 100000 nM in each case.
As for `Cc1ccc(NS(N)(=O)=O)cc1`, the Ki at Carbonic anhydrase 2 amounted to 13 nM; on Carbonic anhydrase 1, 15 nM.
The corresponding values for `NS(=O)(=O)NCc1ccccc1` are 123 nM and 133 nM.
As to `NS(=O)(=O)Nc1ccc([N+](=O)[O-])cc1`, the Ki is 13 nM at Carbonic anhydrase 2 and 18 nM on Carbonic anhydrase 1.
As for `NS(=O)(=O)Nc1cccc(C(=O)c2ccccc2)c1`, the Ki at Carbonic anhydrase 2 was determined as 49 nM; at Carbonic anhydrase 1, 62 nM.
Turning to `CCCCNS(N)(=O)=O`, the Ki is 148 nM on Carbonic anhydrase 2 and 173 nM at Carbonic anhydrase 1.
Take `NS(=O)(=O)NC1CCCCC1`: the inhibitory constant (Ki) on Carbonic anhydrase 2 was 450 nM; at Carbonic anhydrase 1 it was 164 nM.
`NS(=O)(=O)Nc1ccc(O)cc1`: the Ki on Carbonic anhydrase 2 was 12 nM; at Carbonic anhydrase 1, 16 nM.
Turning to `CN(C)c1ccc(NS(N)(=O)=O)cc1`, the inhibition constant Ki was found to be 21 nM at Carbonic anhydrase 2 and 17 nM at Carbonic anhydrase 1.
For the molecule `NS(=O)(=O)N(Cc1ccccc1)Cc1ccccc1`, the Ki at Carbonic anhydrase 2 is 647 nM; at Carbonic anhydrase 1, more than 100000 nM.
In the case of `NS(=O)(=O)NC1C2CC3CC(C2)CC1C3` (stereo not given), the figures for the Ki at Carbonic anhydrase 2 and at Carbonic anhydrase 1 were 890 nM and 960 nM, respectively.
Turning to `CC(C)CN(CC(C)C)S(N)(=O)=O`, the Ki on Carbonic anhydrase 2 and at Carbonic anhydrase 1 was more than 100000 nM each time.
For the molecule `NS(=O)(=O)NCCSSCCNS(N)(=O)=O`, the Ki turned out to be 27 nM at Carbonic anhydrase 2 and 149 nM on Carbonic anhydrase 1.
`NS(=O)(=O)Nc1ccccc1` [PHENYLSULFAMIDE] displayed a Ki at Carbonic anhydrase 1 of 13 nM.
